Patent publication US10682371B2, “Small molecule conjugates specifically activated in tumor microenvironment for targeting and use thereof” (priority 2014, dated 2020)
Like-named read-outs stand apart in the source and are kept apart here.

Key:
Human heart = assay type: biochemical; conditions: for Activation ratio (%) in homogenates from different tumor tissues: Human heart, 1 mg/ml; for Activation Efficiencies (%): Human heart homogenate, 1 mg/ml compound
[1] = Solubility / formulation test in solvent 1 and solvent 2; assay type: physicochemical; conditions: for Concentration achieved, completely dissolved in both solvent 1 and solvent 2: solvent 1 injectable water
Method: In Table 11, AAN, AANL and AANK indicate the linkage formed by small peptides in the compounds, A is Ala, N is Asn, L is Leu and K is Lys. […] The dissolution concentration is 10 mg/ml.
B1, B2, B3 and B4 and various control compounds were dried under vacuum, sterilized via gas sterilization, and separately packing in a sterile room. Before animal test, B1, B2, B3 and B4 were dissolved by solvent 1 (injectable water) or solvent 2 (30% alcohol, 70% injectable water) and diluted by injectable water to the desired concentration in sterile room. […] Change in solubility may greatly affect the formulation scheme of a drug.
D1, D2, D3, D4 and various control compounds were dried under vacuum, sterilized via gas sterilization, and separately packing in a sterile room. […] Change in solubility may greatly affect the formulation scheme of a drug.

[2] = system: Human prostate cancer PC-3 cells / Panc-1 cells; assay: Tumor treatment in nude mice (PC-3 cells purchased, Panc-1 cells injected; Examples 22, 32, 42); assay type: in vivo; conditions: for Size of tumor (mm^3) Day 10 / inhibitory rate on tumor Day 10 / Size of tumor (mm^3) Day 24 / inhibitory rate on tumor Day 24: nude mice, IV once weekly for four weeks, Paclitaxel 8 mg/kg; for Inhibition on tumor growth, in words: compared with parent drug group (same molar concentration) and control group
Method: (§1) 1) Human prostate cancer PC-3 cells were purchased from American type culture collection (ATCC) and identified according the specification provided by ATCC. Cells were cultivated in DMEM culture solution containing 10% fetal bovine serum at 37° C. and 5% CO2. The cells were passaged for every three days and cells within the 15th passage were used.
2) Production of tumor. 5×10^6Panc-1 cells were subcutaneously injected to the back of the nude mice. Mice were randomly grouped after the tumor reached at least 100 mm^3. Then treatment began and the day on which the treatment began was day 1.
The control group was administered by physiological saline. Drugs were administered once weekly for four weeks.
According to the clinical application of B1, B2, B3 and B4, drugs were intravenously injected (IV). […] The control group was administered by physiological saline. Drugs were administered once weekly for four weeks.

4T1 cells = assay: BALB/C mice model for tumor metastasis (4T1, lung metastases); assay type: in vivo; conditions: for Inhibitory effect on tumor metastasis, in words: compared with parent drug group and control group
Method: as §1, with “4T1” for “Human prostate cancer PC-3”
2) Production of tumor metastasis. 10^6 […] were subcutaneously injected to the back of the BALB/C mice. Mice were randomly grouped after the tumor grew to about 1.5 cm. The subcutaneous tumor was removed by surgery and drug treatment began. Mice were killed after anesthesia on day 27. The whole lung was taken out and put into Bouin's solution for staining. The number of the tumor metastasized to lung was counted with anatomical microscope.
(§2) The control group was administered by physiological saline. Drugs were administered once for every three days for 4 times.
as §2
According to the clinical application of B1, B2, B3 and B4, drugs were intravenously injected (IV). […] The control group was administered by physiological saline. Drugs were administered once for every three days for 4 times.
According to the clinical application of D1, D2, D3 and D4, drugs were intravenously injected (IV). […] The control group was administered by physiological saline. Drugs were administered once for every three days for 4 times.

BALB/C mice = assay: Maximum tolerated dose (MTD) / acute toxicity by single intravenous injection; conditions: for Behaviors and death observed: BALB/C mice receiving 90 mg/kg injection; for MTD (maximum tolerated dose): intravenous injection, one time
[3] = system: Human fibrosarcoma HT-1080 tumor tissue homogenate; assay type: biochemical; conditions: for Activation Efficiencies (%): Human fibrosarcoma HT-1080 tumor tissue homogenate (30 μg/ml), 1 mg/ml compound
How it was run: (§3)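 Compounds at 1 mg/ml were incubated at 37°C with 100 μg acidized tissue homogenate (pH 6.0). Activation by homogenate proteases was assessed.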

tumor tissue homogenates = assay type: biochemical
How it was run: as §3

[4] = Table 28, BALB/C mice, 4T1, lung metastases day 27, IV every three days for 4 times, A1-A4 12 mg/kg, Paclitaxel 4 mg/kg
[5] = single intravenous injection, 125 mg/kg, 10 BALB/C mice per group
[6] = single intravenous injection, 150 mg/kg, 10 BALB/C mice per group
[7] = single intravenous injection, 175 mg/kg, 10 BALB/C mice per group
[8] = single intravenous injection, 200 mg/kg, 10 BALB/C mice per group
[9] = 4T1, BALB/C mice, lung, day 27, IV every three days for 4 times, S1′-S4′ 12 mg/kg, Paclitaxel 4 mg/kg
[10] = day 27, IV once every three days for 4 times, E1-E4 15 mg/kg, mitomycin 1 mg/kg
[11] = lung metastases counted on day 27, IV once every three days for 4 times, E1-E4 15 mg/kg, mitomycin 1 mg/kg

SMILES: COCCOCCOCCOCCOCCOCC(=O)NCCCC[C@H](NC(=O)COCCOCCOCCOCCOCCOC)C(=O)N[C@H](C)C(=O)N[C@H](C)C(=O)N[C@H](CC(N)=O)C(=O)Nc1ccc(COC(=O)OC(C(=O)OC2C[C@@]3(O)[C@@H](OC(=O)c4ccccc4)[C@H]4[C@](C)(C(=O)[C@H](OC(C)=O)C(=C2C)C3(C)C)[C@@H](O)CC2OC[C@]24OC(C)=O)[C@@H](NC(=O)c2ccccc2)c2ccccc2)cc1 (stereo partly shown) [Compound A2]
- Activation ratio (%) in homogenates from different tumor tissues (Human heart; acidized homogenate pH6.0, Paclitaxel release by HPLC): none
- solubility in Solvent 1 ([1]; solvent 1 (injectable water), Table 22, Paclitaxel series): soluble
- Concentration achieved, completely dissolved in both solvent 1 and solvent 2 ([1]; solvent 2 45% alcohol, 55% injectable water): 10000 µg/mL
- solubility in Solvent 2 ([1]; solvent 2 (45% alcohol, 55% injectable water), Table 22, Paclitaxel series): soluble
- Solubility in water, in words ([1]; water): can directly dissolve in water
- Size of tumor (mm^3) Day 10 ([2]; Table 26, A1-A4 24 mg/kg): 55.19 ± 56.2 mm^3
- inhibitory rate on tumor Day 10 ([2]; Table 26, A1-A4 24 mg/kg): 81.3%
- Size of tumor (mm^3) Day 24 ([2]; Table 26, A1-A4 24 mg/kg): 44.43 ± 47.9 mm^3
- inhibitory rate on tumor Day 24 ([2]; Table 26, A1-A4 24 mg/kg): 88.3%
- Inhibition on tumor growth, in words [2]: greatly improved
- Inhibitory rate on metastasis (4T1 cells; [4]): 93.9%
- Number of metastasized tumor (4T1 cells; [4]): 9 ± 5
- Inhibitory effect on tumor metastasis, in words (4T1 cells): greatly improved
- Behaviors and death observed (BALB/C mice): no pilo-erection, hair tousle and lackluster, lethargy, stoop, irritable reaction and death
- MTD (maximum tolerated dose) (BALB/C mice; BALB/C mice): about 90 mg/kg
- Mortality rate (%) (BALB/C mice; [5]): 10%
- Number of dead animal (BALB/C mice; [5]): 2
- Mortality rate (%) (BALB/C mice; [6]): 0%
- Number of dead animal (BALB/C mice; [6]): 0
- Mortality rate (%) (BALB/C mice; [7]): 0%
- Number of dead animal (BALB/C mice; [7]): 0
- Mortality rate (%) (BALB/C mice; [8]): 0%
- Number of dead animal (BALB/C mice; [8]): 0

SMILES: COCCOCCOCCOCCOCCOCC(=O)N[C@H](C)C(=O)N[C@H](C)C(=O)N[C@H](CC(N)=O)C(=O)Nc1ccc(COC(=O)OC(C(=O)OC2C[C@@]3(O)[C@@H](OC(=O)c4ccccc4)[C@H]4[C@](C)(C(=O)[C@H](OC(C)=O)C(=C2C)C3(C)C)[C@@H](O)CC2OC[C@]24OC(C)=O)[C@@H](NC(=O)c2ccccc2)c2ccccc2)cc1 (stereo partly shown) [S2′]
- Activation ratio (%) in homogenates from different tumor tissues (Human heart; 37°): none
- solubility in Solvent 1 ([1]; Solvent 1 injectable water, dissolution concentration 10 mg/ml): soluble
- solubility in Solvent 2 ([1]; Solvent 2: 50% injectable water, 45%-49% propanediol, 1%-5% Tween80, dissolution concentration 10 mg/ml): soluble
- Concentration achieved, completely dissolved in both solvent 1 and solvent 2 ([1]; solvent 2 50% injectable water, 42%-49% propanediol, 1%-8% Tween80): 10000 µg/mL
- Inhibition on tumor growth, in words [2]: greatly improved
- Size of tumor (mm^3) Day 10 ([2]; S1′-S4′ 24 mg/kg): 60.17 ± 30.26 mm^3
- inhibitory rate on tumor Day 10 ([2]; S1′-S4′ 24 mg/kg): 36.4%
- Size of tumor (mm^3) Day 24 ([2]; S1′-S4′ 24 mg/kg): 42.39 ± 62.24 mm^3
- inhibitory rate on tumor Day 24 ([2]; S1′-S4′ 24 mg/kg): 83.01%
- Inhibitory rate on metastasis (4T1 cells; [9]): 94.1%
- Number of metastasized tumor (4T1 cells; [9]): 8 ± 7
- Inhibitory effect on tumor metastasis, in words (4T1 cells): greatly improved
- Behaviors and death observed (BALB/C mice): no pilo-erection, hair tousle and lackluster, lethargy, stoop, irritable reaction and death
- MTD (maximum tolerated dose) (BALB/C mice; BALB/C mice): about 90 mg/kg
- Mortality rate (%) (BALB/C mice; BALB/C mice, single iv, 125 mg/kg): 0%
- Number of dead animal (BALB/C mice; BALB/C mice, single iv, 125 mg/kg, 10 animals): 0
- Mortality rate (%) (BALB/C mice; BALB/C mice, single iv, 150 mg/kg): 0%
- Number of dead animal (BALB/C mice; BALB/C mice, single iv, 150 mg/kg, 10 animals): 0
- Mortality rate (%) (BALB/C mice; BALB/C mice, single iv, 175 mg/kg): 0%
- Number of dead animal (BALB/C mice; BALB/C mice, single iv, 175 mg/kg, 10 animals): 0
- Mortality rate (%) (BALB/C mice; BALB/C mice, single iv, 200 mg/kg): 10%
- Number of dead animal (BALB/C mice; BALB/C mice, single iv, 200 mg/kg, 10 animals): 1

SMILES: COc1cccc2c1C(=O)c1c(O)c3c(c(O)c1C2=O)C[C@@](O)(C(C)=O)C[C@@H]3O[C@H]1C[C@H](NC(=O)OCc2ccc(NC(=O)[C@H](CC(N)=O)NC(=O)[C@H](C)NC(=O)[C@H](C)NC(=O)CCCCCN3C(=O)C=CC3=O)cc2)[C@H](O)[C@H](C)O1 [Compound S5, 4-N—(N—(N—(N-(6-maleimidocaproyl)-L-alanyl)-L-alanyl)-L-asparaginyl)-amino benzyl alcohol-daunorubicin-carbamate]
- Activation Efficiencies (%) (Human heart): 3.5%
- Activation Efficiencies (%) [3]: 98.4%

SMILES: CCCCCOC(=O)Nc1nc(=O)n([C@@H]2O[C@H](C)[C@@H](OC(=O)OCc3ccc(NC(=O)[C@H](CC(N)=O)NC(=O)[C@H](C)NC(=O)[C@H](C)NC(=O)CCCCCCC(=O)NO)cc3)[C@H]2O)cc1F [Compound S3, 4-N—(N—(N—(N-(8-(N-hydroxylamino)-1,8-octandioic acid-1-monoacyl)-L-alanyl)-L-alanyl)-L-asparaginyl)-amino benzyl alcohol-capecitabine-carbonic acid diester]
- Activation Efficiencies (%) (Human heart): 1.6%
- Activation efficiency by tumor tissue, in words (tumor tissue homogenates): very high activation efficiency
- Activation Efficiencies (%) [3]: 94.9%

SMILES: CO[C@@]12[C@H](COC(N)=O)C3=C(C(=O)C(C)=C(N)C3=O)N1C[C@@H]1N[C@@H]12 [mitomycin, reference compound]
- Inhibitory rate on metastasis (4T1 cells; [10]): 5.9%
- Number of metastasized tumor (4T1 cells; [11]): 128 ± 25
- Mortality rate (%) (BALB/C mice; 6 mg/kg single IV injection, 10 BALB/C mice): 0%
- Number of dead animal (BALB/C mice; 6 mg/kg single IV injection, 10 BALB/C mice, observed 17 days): 0
- Mortality rate (%) (BALB/C mice; 7 mg/kg single IV injection, 10 BALB/C mice): 10%
- Number of dead animal (BALB/C mice; 7 mg/kg single IV injection, 10 BALB/C mice, observed 17 days): 1
- Mortality rate (%) (BALB/C mice; 8 mg/kg single IV injection, 10 BALB/C mice): 40%
- Number of dead animal (BALB/C mice; 8 mg/kg single IV injection, 10 BALB/C mice, observed 17 days): 4
- Mortality rate (%) (BALB/C mice; 9 mg/kg single IV injection, 10 BALB/C mice): 90%
- Number of dead animal (BALB/C mice; 9 mg/kg single IV injection, 10 BALB/C mice, observed 17 days): 9

SMILES: COCCOCCOCCOCCOCCOCC(=O)N[C@H](C)C(=O)N[C@H](C)C(=O)N[C@H](CC(N)=O)C(=O)Nc1ccc(COC(=O)N2[C@H]3[C@@H]2CN2C4=C(C(=O)C(N)=C(C)C4=O)[C@H](COC(N)=O)[C@]32OC)cc1 [Compound E2]
- Activation ratio (%) in homogenates from different tumor tissues ([3]; Human fibrosarcoma HT-1080, 37° C., 1 mg/ml, 100 μg acidized homogenate): 85.7%
- Inhibitory effect on tumor metastasis, in words (4T1 cells): greatly improved
- Inhibitory rate on metastasis (4T1 cells; [10]): 94.1%
- Number of metastasized tumor (4T1 cells; [11]): 8 ± 7
- Mortality rate (%) (BALB/C mice; 50 mg/kg single IV injection, 10 BALB/C mice): 0%
- Number of dead animal (BALB/C mice; 50 mg/kg single IV injection, 10 BALB/C mice, observed 17 days): 0
- Mortality rate (%) (BALB/C mice; 70 mg/kg single IV injection, 10 BALB/C mice): 0%
- Number of dead animal (BALB/C mice; 70 mg/kg single IV injection, 10 BALB/C mice, observed 17 days): 0
- Mortality rate (%) (BALB/C mice; 90 mg/kg single IV injection, 10 BALB/C mice): 0%
- Number of dead animal (BALB/C mice; 90 mg/kg single IV injection, 10 BALB/C mice, observed 17 days): 0
- Mortality rate (%) (BALB/C mice; 110 mg/kg single IV injection, 10 BALB/C mice): 10%
- Number of dead animal (BALB/C mice; 110 mg/kg single IV injection, 10 BALB/C mice, observed 17 days): 1
- Behaviors and death observed (BALB/C mice): no pilo-erection, hair tousle and lackluster, lethargy, stoop, irritable reaction and death
